Ends that are not written are not given here. Peptide text beside a SMILES is read from it. * marks the point of attachment. Cam = NC(=O)C*
Legend:
[1] = Functional plasma stability assay (remaining activity in CXCR4 antibody competition after incubation in plasma); format: in vitro ADME, human; settings: 37 °C; for half-life in human plasma, functional assay: 20 µM in 100% pooled human K3 EDTA plasma (6 donors), aliquots serially diluted in cold PBS, 12G5-APC competition on SupT1 cells, 2 h at 4 °C, flow cytometry, activity = IC50(t)/IC50(t=0) x 100, one-phase decay, 3 rounds of plasma incubation
Protocol: For the functional assay, WSC02 (a) or JM#21 (b) were spiked into human plasma and incubated at 37 °C. At indicated time points, aliquots were taken and serially diluted in cold PBS. […] After 2 h, unbound antibody was removed, and cells were analyzed by flow cytometry. Remaining activity was determined described before. For detection by mass spectrometry, WSC02 (a) or JM#21 (b) were spiked into plasma and incubated at 37 °C. and analyzed in LC-MS/MS. Half-lives were calculated using a one-phase decay model in GraphPad Prism. Curve fits are shown as dashed lines. Data shown are derived from 3 individual rounds of plasma incubation ± SEM.
(§1) SupT1 cells were cultured in RPMI supplemented with 10% FCS, 100 units/mL penicillin, 100 µg/mL streptomycin, 2 mM L-glutamine, and 1 mM HEPES (Gibco). Blood was collected from healthy donors (male and female, average age 28 years) using S-Monovettes K3 EDTA (Sarstedt). Plasma was obtained by centrifugation of whole blood at 2.500× g for 15 min. Plasma of 6 donors was pooled and stored at −80 °C.
Competition of compounds with an APC-labeled antibody specific for ECL2 of CXCR4 (clone 12G5) was performed in SupT1 cells as described. For this, cells (without buffer) were precooled at 4 °C and a serial dilution of compounds in PBS together with a constant concentration of antibody diluted in buffer (PBS with 1% FCS) was added. After 2 h at 4 °C, unbound antibody was removed and cells analyzed in flow cytometry (CytoFLEX, Beckman Coulter). Mean fluorescence signals (MFI) in the presence of PBS only was set 100%. Isotype control was set 0%. Half-maximal inhibitory concentrations (IC50) were calculated in GraphPad Prism by nonlinear regression.
Decrease in CXCR4-binding activity after incubation of compounds in human plasma was determined to calculate functional stability as described (Harms et al. 2020). For this purpose, the peptides were dissolved at a concentration of 20 µM in 100% plasma. The first aliquot (t = 0) was immediately taken and stored at −80 °C. Aliquots were taken at given time points and also stored. To determine CXCR4 binding, all aliquots were thawed together and serially diluted in ice-cold PBS and subsequently, antibody competition was performed as described before. IC50 at t = 0 defined as 100% activity and decrease in activity was calculated by IC50 (t)/IC50 (t = 0) × 100. Half-lives were determined by one-phase decay using GraphPad Prism.

[2] = Half-life determination in plasma by mass spectrometry (LC-MS/MS); format: in vitro ADME, human; settings: 37 °C, one-phase decay; for half-life in human plasma, mass spectrometry, samples diluted with 0.1% TFA / half-life at 7 µM: 7 µM in human plasma; for half-life in human plasma, mass spectrometry, samples diluted with 0.1% TFA: aliquots diluted in 0.1% TFA only, LC-MS/MS peak area of intact free peptide, triplicate; for half-life at 7 µM / half-life: both sexes, pooled K3 EDTA plasma, 3 rounds; for half-life at 7 µM: TFA samples ten-fold diluted with 50 mM NH4HCO3 + 10 mM DTT + 6M GuHCl before LC-MS/MS, read-out: half-life in human plasma, mass spectrometry, after GuHCl + DTT ("real" half-live); for half-life: human plasma, LC-MS/MS of intact peptide normalized to t = 0, sample treatment for the variants not stated, read-out: half-life in human plasma, mass spectrometry, peptides without a reactive Cys-thiol
Protocol: A 50 µL-aliquot of human plasma was spiked with 7 µM JM#21 or WSC02. The mixture was stirred for a few seconds and incubated at 37 °C. Five microliter aliquots were separated after 0, 5, 10, 20, 30, 45, 60, 90, and 120 min. Aliquots were immediately diluted with 1.5 mL 0.1% TFA and stored at −80 °C. The experiment was performed in triplicate. Additionally, for the measurement of denatured samples prior to MS measurement, all of the samples stored in 0.1% TFA were ten-fold diluted with 50 mM NH4HCO3 + 10 mM DTT + 6M GuHCl. A 15 uL-aliquot of every sample was used for mass spectrometry analysis as follows: samples were measured using an Orbitrap Elite Hybrid mass spectrometry system (Thermo Fisher Scientific, Bremen, Germany) online coupled to an U3000 RSLCnano (Thermo Fisher Scientific, Idstein, Germany) employing an Acclaim PepMap analytical column (75 μm × 500 mm, 2 μm, 100 Å, Thermo Fisher Scientific, Bremen, Germany) at a flow rate of 250 nL/min. Using a C18 μ-precolumn (0.3 mm × 5 mm, PepMap, Dionex LC Packings, Thermo Fisher Scientific, Bremen, Germany), samples were preconcentrated and washed with 0.1% TFA for 5 min at a flow rate of 30 μL/min. The subsequent separation was carried out using a binary solvent gradient consisting of solvent A (0.1% FA) and solvent B (86% ACN, 0.1% FA). The column was initially equilibrated in 5% B. In the first elution step, the percentage of B was raised from 5 to 15% in 5 min, followed by an increase from 15 to 40% B in 30 min. The column was washed with 95% B for 4 min and re-equilibrated with 5% B for 19 min. The mass spectrometer was equipped with a nanoelectrospray ion source and distal-coated SilicaTips (FS360-20-10-D, New Objective, Woburn, MA, USA). The instrument was externally calibrated using standard compounds (LTQ Velos ESI Positive Ion Calibration Solution, Pierce, Thermo Scientific, Rockford, IL, USA). The system was operated using the following parameters: spray voltage, 1.5 kV; capillary temperature, 250 °C; S-lens RF level, 68.9%. XCalibur 2.2 SP1.48 (Thermo Fisher Scientific, Bremen, Germany) was used for data-dependent tandem mass spectrometry (MS/MS) analyses. Full scans ranging from m/z 370 to 1700 were acquired in the Orbitrap at a resolution of 30,000 (at m/z 400) with automatic gain control (AGC) enabled and set to 106 ions and a maximum fill time of 500 ms. Up to 20 multiply-charged peptide ions were selected from each survey scan for collision-induced fragmentation (CID) in the linear ion trap using AGC set to 10,000 ions and a maximum fill time of 100 ms. For MS/MS fragmentation, normalized collision energy of 35% with an activation q of 0.25 and an activation time of 30 ms was used.
For visualization in the XCalibur Qual Browser 2.0 (Thermo Fisher Scientific, Bremen, Germany), extracted ion xhromatograms (XICs) of the most intense isotope (±20 ppm), as theoretically predicted, at z = 3 or z = 4 were calculated. Using default parameters within the QualBrowser, peak areas were calculated and exported. Half-lives were determined by fitting the data (peak area vs. time) to a one-phase exponential decay model using GraphPad Prism 8.4.3 (GraphPad Prism Software LLC, San Diego, CA, USA).
(§2) The influence of several reagents on peptide detection was tested with aliquots separated (peptide + plasma, 300-fold diluted in 0.1%TFA) at t = 10 min. The aliquots were analyzed by LC-MS/MS, as previously described, after 10-fold dilution in 0.1% TFA, 6M GuHCl, 50 mM NH4HCO3 + 10 mM DTT, and 50 mM NH4HCO3 + 10 mM DTT + 6M GuHCl, respectively.
as §1

[3] = target: T1, human serum albumin (HSA) (Homo sapiens, UniProt P02768); assay: Interaction with plasma components: size-exclusion fractionation and tryptic digestion of spiked plasma, LC-MS/MS; format: in vitro ADME; settings: plasma spiked with peptide, 37 °C, 10 min; SEC fractions treated with DTT + GuHCl; tryptic digest LC-MSMS
T1 construct: from tissue; host or cells: human plasma
T1 sequence (P02768 25-609): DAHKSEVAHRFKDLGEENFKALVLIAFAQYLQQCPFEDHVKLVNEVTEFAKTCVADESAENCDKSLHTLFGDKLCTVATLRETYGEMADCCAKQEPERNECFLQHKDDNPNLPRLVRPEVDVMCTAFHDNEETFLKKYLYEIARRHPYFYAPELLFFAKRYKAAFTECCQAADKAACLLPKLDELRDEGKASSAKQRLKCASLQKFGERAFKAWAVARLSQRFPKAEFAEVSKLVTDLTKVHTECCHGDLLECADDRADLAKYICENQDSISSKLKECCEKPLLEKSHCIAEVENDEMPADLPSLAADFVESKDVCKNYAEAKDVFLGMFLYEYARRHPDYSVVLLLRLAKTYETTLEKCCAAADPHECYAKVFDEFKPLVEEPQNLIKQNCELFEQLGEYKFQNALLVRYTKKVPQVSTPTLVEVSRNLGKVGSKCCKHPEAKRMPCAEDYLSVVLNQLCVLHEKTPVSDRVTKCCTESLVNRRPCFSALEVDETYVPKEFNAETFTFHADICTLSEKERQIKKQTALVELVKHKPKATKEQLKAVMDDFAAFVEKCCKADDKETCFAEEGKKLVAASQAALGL
Protocol: as §2
A 5 µL aliquot of the peptides in plasma, after incubation at 37 °C for 10 min, was injected into a size-exclusion column Yarra SEC-2000 (Phenomenex, CA, USA) of dimensions 7.8 × 300 mm, 3 µm particle size. The separation was done at a flow rate of 0.5 mL/min using a buffer composed of 25 mM NaH2PO4 + 25 mM Na2HPO4 + 250 mM KCl (pH 6.65). Fractions were collected every one minute, and then analyzed by mass spectrometry in denaturing conditions (1/10 in 50 mM NH4HCO3 + 10 mM DTT + 6M GuHCl) as previously described.
A 5 µL aliquot of plasma spiked with WSC02 or JM#21 was mixed with trypsin (50:1) and incubated at 37 degrees for 16 h. Half of the digested sample was reduced and carbamidomethylated, as described above. The digested samples, both unmodified and carbamidomethylated, were analyzed by mass spectrometry, as previously described in this section.

[4] = system: CXCR4; settings: cited from earlier work
Text: In addition, both peptides contain a cystein ...

[5] = human plasma, antibody competition read-out, 3 rounds
[6] = human plasma, 30 min, antibody competition read-out, 3 rounds

Row | Compound | half-life in human plasma, functional assay [1] [min] | half-life in human plasma, functional assay ([1]; listed as JM#21) [min] | activity decreased by (loss of activity) after 15 min in plasma [1, 5] [%] | remaining activity after 30 min in plasma [1, 6] [%] | half-life in human plasma, mass spectrometry, samples diluted with 0.1% TFA [2] [min] | half-life at 7 µM [2] [min] | interaction with human serum albumin in plasma (in words) [3] | higher antagonistic activity as compared with EPI-X4 [4] [fold] | half-life [2] [min] | activity reduced by (loss of activity) after 30 min in plasma [1, 6] [%] | half-life in human plasma, functional assay ([1]; listed as WSC02) | remaining activity after 60 min in plasma ([1]; human plasma, 60 min, antibody competition read-out, 3 rounds) [%]
1 | CC[C@H](C)[C@H](N)C(=O)N[C@@H](CC(C)C)C(=O)N[C@@H](CCCNC(=N)N)C(=O)N[C@@H](Cc1c[nH]c2ccccc12)C(=O)N[C@@H](CO)C(=O)N[C@@H](CCCNC(=N)N)C(=O)N[C@@H](CCCCN)C(=O)N[C@@H](CC(C)C)C(=O)N1CCC[C@H]1C(=O)N[C@@H](CS)C(=O)N[C@H](C(=O)N[C@@H](CO)C(=O)O)C(C)C [EPI-X4 JM#21] | 6 | ~6 | 69 | 10 | 1.7 | 5 | forming a disulfide bridge with a free thiol group (Cys34) on HSA | ~300 |  |  |  | 
2 | CC[C@H](C)[C@H](N)C(=O)N[C@@H](CC(C)C)C(=O)N[C@@H](CCCNC(=N)N)C(=O)N[C@@H](Cc1c[nH]c2ccccc12)C(=O)N[C@@H](CO)C(=O)N[C@@H](CCCNC(=N)N)C(=O)N[C@@H](CCCCN)C(=O)N[C@@H](CC(C)C)C(=O)N1CCC[C@H]1C(=O)N[C@@H](CSCC(N)=O)C(=O)N[C@H](C(=O)N[C@@H](CO)C(=O)O)C(C)C [JM#21 Cdm] | 3 |  | 95 |  |  |  |  |  | 3 |  |  | 
3 | CC[C@H](C)[C@H](N)C(=O)N[C@H](C(=O)N[C@@H](CCCNC(=N)N)C(=O)N[C@@H](Cc1c[nH]c2ccccc12)C(=O)N[C@@H](CO)C(=O)N[C@@H](CCCCN)C(=O)N[C@@H](CCCCN)C(=O)N[C@H](C(=O)N1CCC[C@H]1C(=O)N[C@@H](CSCC(N)=O)C(=O)N[C@H](C(=O)N[C@@H](CO)C(=O)O)C(C)C)C(C)C)C(C)C [WSC02 Cdm] (H-IVRWSKKVPC(Cam)VS-OH) | 6 |  |  |  |  |  |  |  | 5 | 93 |  | 
4 | ILRWSRKLPSVS [JM#21 C10S] | 4 |  | 91 |  |  |  |  |  | 4 |  |  | 
5 | IVRWSKKVPCVS [EPI-X4 WSC02] | 9 |  |  |  | 0.7 | 6 | forming a disulfide bridge with a free thiol group (Cys34) on HSA |  |  |  | about 9 min | 20
6 | IVRWSKKVPSVS [WSC02 C10S] | 7 |  |  |  |  |  |  |  | 4 | 92 |  | 

Reference: article PMC9735595, “Advanced EPI-X4 Derivatives Covalently Bind Human Serum Albumin Resulting in Prolonged Plasma Stability” (International Journal of Molecular Sciences, 2022)
